Twelve compounds from patent publication US12258327B2, “5-membered heteroaryl-containing aminopyridine compounds as EGFR inhibitors” (YUHAN CORPORATION, priority 2021, dated 2025) can be followed below.

Read-outs that look alike come from different tables or passages of the source.

The target of assay [1] is EGFR L858R/C797S (Homo sapiens, UniProt P00533, C797S/L858R). Description: Biochemical EGFR kinase assay (Lance Ultra TR-FRET), double mutant L858R/C797S. The method in brief: (§1)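 Kinase activity is measured by TR-FRET phosphopeptide detection. Compounds span 0.003 μM to 10 μM; the 1 h reaction at room temperature is quenched with EDTA, then labelled antibody (2 nM) is incubated 60 min before reading.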
(In general: Time-resolved FRET reads energy transfer from a long-lived donor to a nearby acceptor.)

The target of assay [2] is EGFR del19/T790M/C797S (Homo sapiens, UniProt P00533, C797S/DEL746-750/T790M). Description: Biochemical EGFR kinase assay (Lance Ultra TR-FRET), triple mutant del19/T790M/C797S. The method, boiled down:
as §1

Assay [3] has as its target EGFR del19/C797S (Homo sapiens, UniProt P00533, C797S/DEL746-750). In words: Biochemical EGFR kinase assay (Lance Ultra TR-FRET), double mutant del19/C797S. The method, boiled down:
as §1

The target in assay [4] is EGFR wildtype (WT) (Homo sapiens, UniProt P00533). Description: Biochemical EGFR kinase assay (Lance Ultra TR-FRET), wildtype. The method in brief: as §1
The target in assay [5] is EGFR L858R/T790M/C797S (Homo sapiens, UniProt P00533, C797S/L858R/T790M). In words: Biochemical EGFR kinase assay (Lance Ultra TR-FRET), triple mutant L858R/T790M/C797S. The method, boiled down: as §1
[6] abbreviates: IC50 L858R/C797S (nM) 100 μM ATP, 100 μM ATP.
[7] abbreviates: Km ATP, read-out: IC50 L858R/C797S (nM) Km ATP.
The mark [8] stands for this setting: IC50 del19/T790M/C797S (nM) 100 μM ATP, 100 μM ATP.
Where [9] appears, read: Km ATP, read-out: IC50 del19/T790M/C797S (nM) Km ATP.
The mark [10] stands for this setting: IC50 del19/C797S (nM) 100 μM ATP, 100 μM ATP.
Where [11] appears, read: Km ATP, read-out: IC50 del19/C797S (nM) Km ATP.
The mark [12] stands for this setting: IC50 WT (nM) 100 μM ATP, 100 μM ATP.
Setting [13] is: Km ATP, read-out: IC50 WT (nM) Km ATP.
The mark [14] stands for this setting: IC50 L858R/T790M/C797S (nM) 100 μM ATP, 100 μM ATP.
[15] abbreviates: Km ATP, read-out: IC50 L858R/T790M/C797S (nM) Km ATP.

Chain of EGFR L858R/T790M/C797S (P00533 25-1210 T790M/C797S/L858R): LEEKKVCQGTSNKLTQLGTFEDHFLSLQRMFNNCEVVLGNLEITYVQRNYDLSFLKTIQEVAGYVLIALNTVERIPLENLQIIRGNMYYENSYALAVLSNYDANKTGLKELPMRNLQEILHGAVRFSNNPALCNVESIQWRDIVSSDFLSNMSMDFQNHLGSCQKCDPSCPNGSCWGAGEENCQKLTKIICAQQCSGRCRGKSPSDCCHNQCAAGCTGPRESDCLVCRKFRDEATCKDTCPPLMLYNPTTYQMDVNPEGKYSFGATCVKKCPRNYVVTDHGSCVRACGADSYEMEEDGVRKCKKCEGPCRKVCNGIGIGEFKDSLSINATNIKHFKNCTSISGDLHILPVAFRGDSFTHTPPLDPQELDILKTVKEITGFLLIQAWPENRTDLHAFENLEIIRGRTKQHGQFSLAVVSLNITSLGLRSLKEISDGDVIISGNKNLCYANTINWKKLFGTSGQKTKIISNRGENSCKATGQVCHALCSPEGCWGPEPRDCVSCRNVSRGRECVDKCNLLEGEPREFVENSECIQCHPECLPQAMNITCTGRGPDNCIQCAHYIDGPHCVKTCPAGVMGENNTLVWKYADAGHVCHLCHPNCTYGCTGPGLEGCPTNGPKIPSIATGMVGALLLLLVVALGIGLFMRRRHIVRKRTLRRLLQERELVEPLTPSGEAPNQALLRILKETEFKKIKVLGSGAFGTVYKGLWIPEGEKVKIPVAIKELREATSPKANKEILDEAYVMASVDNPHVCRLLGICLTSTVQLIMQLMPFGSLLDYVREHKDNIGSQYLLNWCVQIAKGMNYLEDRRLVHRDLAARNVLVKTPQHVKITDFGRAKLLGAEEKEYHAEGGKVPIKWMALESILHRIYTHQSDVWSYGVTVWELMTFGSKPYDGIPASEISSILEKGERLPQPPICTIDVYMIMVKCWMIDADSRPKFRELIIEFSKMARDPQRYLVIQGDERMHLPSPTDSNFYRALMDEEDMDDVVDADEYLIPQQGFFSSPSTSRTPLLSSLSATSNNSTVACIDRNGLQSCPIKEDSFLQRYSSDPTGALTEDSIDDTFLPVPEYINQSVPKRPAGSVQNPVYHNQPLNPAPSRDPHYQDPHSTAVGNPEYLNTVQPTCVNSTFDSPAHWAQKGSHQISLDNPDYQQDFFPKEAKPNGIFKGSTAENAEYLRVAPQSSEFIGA
Chain of EGFR del19/C797S (P00533 with tags, fused parts or gaps DEL746-750/C797S): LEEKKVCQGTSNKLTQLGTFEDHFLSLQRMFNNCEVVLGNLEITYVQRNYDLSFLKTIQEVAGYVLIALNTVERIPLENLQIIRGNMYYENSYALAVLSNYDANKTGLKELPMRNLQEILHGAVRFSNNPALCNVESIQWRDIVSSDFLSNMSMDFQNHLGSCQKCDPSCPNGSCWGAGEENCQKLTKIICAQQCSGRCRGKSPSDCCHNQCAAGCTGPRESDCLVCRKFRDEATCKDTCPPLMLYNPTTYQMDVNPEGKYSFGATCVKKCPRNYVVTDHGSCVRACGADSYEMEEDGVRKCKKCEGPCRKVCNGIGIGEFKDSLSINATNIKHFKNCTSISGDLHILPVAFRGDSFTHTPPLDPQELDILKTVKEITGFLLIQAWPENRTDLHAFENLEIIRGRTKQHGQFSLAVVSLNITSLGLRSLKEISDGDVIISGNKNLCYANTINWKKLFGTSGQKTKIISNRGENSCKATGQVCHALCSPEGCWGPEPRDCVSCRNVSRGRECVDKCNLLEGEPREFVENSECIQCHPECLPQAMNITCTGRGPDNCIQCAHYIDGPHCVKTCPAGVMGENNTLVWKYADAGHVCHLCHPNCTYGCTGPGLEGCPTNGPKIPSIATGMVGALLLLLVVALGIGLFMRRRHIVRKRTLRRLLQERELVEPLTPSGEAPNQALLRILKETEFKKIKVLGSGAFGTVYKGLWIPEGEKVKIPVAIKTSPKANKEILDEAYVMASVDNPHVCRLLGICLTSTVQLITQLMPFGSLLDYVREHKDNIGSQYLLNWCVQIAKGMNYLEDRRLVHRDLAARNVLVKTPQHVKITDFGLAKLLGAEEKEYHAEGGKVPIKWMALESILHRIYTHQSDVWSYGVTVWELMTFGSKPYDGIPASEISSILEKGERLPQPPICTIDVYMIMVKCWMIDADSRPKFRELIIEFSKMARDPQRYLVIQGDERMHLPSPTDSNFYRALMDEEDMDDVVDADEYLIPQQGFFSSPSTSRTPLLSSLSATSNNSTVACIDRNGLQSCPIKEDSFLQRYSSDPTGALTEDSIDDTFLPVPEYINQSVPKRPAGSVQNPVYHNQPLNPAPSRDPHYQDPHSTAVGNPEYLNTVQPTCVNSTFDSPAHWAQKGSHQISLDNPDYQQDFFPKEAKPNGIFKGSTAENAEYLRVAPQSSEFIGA
Chain of EGFR wildtype (WT) (P00533 25-1210): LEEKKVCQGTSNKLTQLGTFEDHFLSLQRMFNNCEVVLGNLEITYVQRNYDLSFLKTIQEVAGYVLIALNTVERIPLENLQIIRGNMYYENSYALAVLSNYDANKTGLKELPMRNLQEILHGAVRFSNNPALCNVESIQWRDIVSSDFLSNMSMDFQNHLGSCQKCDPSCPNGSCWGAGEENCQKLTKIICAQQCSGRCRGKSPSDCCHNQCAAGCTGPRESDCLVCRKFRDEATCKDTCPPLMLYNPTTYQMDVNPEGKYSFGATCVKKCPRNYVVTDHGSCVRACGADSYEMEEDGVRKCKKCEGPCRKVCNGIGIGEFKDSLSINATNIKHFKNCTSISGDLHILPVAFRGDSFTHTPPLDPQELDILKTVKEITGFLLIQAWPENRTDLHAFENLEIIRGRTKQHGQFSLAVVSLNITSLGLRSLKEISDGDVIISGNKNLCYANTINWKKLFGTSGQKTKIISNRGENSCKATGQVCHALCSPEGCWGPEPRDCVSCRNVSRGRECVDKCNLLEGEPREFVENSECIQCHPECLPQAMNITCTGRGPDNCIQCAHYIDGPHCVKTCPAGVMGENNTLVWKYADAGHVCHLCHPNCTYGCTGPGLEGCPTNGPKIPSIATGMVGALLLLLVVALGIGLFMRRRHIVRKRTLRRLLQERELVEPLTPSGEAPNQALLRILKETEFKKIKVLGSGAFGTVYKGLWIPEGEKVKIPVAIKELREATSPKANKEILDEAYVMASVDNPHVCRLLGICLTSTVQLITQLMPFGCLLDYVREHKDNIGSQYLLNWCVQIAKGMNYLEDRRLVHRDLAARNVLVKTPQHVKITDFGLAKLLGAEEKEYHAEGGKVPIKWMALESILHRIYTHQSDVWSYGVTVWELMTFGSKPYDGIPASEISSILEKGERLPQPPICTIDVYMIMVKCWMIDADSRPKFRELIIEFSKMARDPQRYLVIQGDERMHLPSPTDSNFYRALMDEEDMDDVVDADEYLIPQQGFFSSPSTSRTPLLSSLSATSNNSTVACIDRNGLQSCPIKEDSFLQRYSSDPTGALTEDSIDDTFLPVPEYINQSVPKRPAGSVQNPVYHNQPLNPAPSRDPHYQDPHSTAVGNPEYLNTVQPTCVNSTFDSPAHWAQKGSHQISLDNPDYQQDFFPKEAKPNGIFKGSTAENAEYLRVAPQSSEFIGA
Chain of EGFR del19/T790M/C797S (P00533 with tags, fused parts or gaps DEL746-750/T790M/C797S): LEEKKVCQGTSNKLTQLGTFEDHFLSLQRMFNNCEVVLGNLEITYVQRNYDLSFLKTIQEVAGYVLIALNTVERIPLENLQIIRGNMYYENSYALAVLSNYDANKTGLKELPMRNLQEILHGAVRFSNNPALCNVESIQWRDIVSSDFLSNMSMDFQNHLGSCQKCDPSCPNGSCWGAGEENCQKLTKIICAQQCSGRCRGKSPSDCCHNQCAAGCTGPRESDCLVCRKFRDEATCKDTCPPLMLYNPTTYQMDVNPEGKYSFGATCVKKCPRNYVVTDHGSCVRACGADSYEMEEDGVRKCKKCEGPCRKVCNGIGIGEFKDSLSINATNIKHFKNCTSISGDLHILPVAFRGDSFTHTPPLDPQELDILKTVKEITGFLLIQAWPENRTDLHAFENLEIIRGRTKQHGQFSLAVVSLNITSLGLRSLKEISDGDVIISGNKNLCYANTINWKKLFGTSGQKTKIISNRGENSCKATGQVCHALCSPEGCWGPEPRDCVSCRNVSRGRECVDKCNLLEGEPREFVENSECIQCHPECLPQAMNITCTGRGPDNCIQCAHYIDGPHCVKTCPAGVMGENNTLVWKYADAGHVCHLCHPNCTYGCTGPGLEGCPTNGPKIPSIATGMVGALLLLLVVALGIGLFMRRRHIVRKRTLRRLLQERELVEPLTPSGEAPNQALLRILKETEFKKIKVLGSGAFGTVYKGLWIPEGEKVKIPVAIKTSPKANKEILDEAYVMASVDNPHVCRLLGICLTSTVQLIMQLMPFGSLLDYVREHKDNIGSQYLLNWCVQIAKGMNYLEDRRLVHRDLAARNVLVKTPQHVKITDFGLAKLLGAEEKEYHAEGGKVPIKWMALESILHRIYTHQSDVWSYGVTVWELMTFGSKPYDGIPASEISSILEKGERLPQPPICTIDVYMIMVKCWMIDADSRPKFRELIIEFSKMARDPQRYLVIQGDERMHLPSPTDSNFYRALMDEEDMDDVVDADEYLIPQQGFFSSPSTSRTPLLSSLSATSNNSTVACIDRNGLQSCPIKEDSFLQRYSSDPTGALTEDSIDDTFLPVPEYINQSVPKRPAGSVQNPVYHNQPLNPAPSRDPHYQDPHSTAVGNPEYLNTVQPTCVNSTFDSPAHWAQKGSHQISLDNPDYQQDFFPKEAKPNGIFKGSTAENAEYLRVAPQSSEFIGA

In the case of `O=S(=O)(C1CC1)n1cc(-c2nccc(Nc3cc(N[C@H]4CCC[C@H](CO)C4)c(-c4ccn(CC(F)(F)F)n4)cn3)n2)cn1` [Example 271, ((1S,3S)-3-((2-((2-(1-(Cyclopropylsulfonyl)-1H-pyrazol-4-yl)pyrimidin-4-yl)amino)-5-(1-(2,2,2-trifluoroethyl)-1H-pyrazol-3-yl)pyridin-4-yl)amino)cyclohexyl)methanol], the IC50 in assay [1] (setting [6]) is 8.7 nM; in assay [1] (setting [7]) it was 4.6 nM; in assay [2] (setting [8]), 1.4 nM; in assay [2] (setting [9]), 0.6 nM; in assay [3] (setting [10]) it was 122 nM; in assay [3] (setting [11]), 10.3 nM. Further, the IC50 in assay [4] (setting [12]) is greater than 10000 nM; in assay [4] (setting [13]), 50.1 nM; in assay [5] (setting [14]), 1.4 nM; in assay [5] (setting [15]), 0.5 nM.

Regarding `O=S(=O)(C1CC1)n1cc(-c2nccc(Nc3cc(NCC4CCC(O)C4)c(-c4ccn(C(F)F)n4)cn3)n2)cn1` (stereo not drawn) [Example 33, 3-(((2-((2-(1-(Cyclopropylsulfonyl)-1H-pyrazol-4-yl)pyrimidin-4-yl)amino)-5-(1-(difluoromethyl)-1H-pyrazol-3-yl)pyridin-4-yl)amino)methyl)cyclopentan-1-ol], the IC50 is 13.5 nM in assay [1] (setting [6]); 0.7 nM in assay [1] (setting [7]); 1 nM in assay [2] (setting [8]); 0.5 nM in assay [2] (setting [9]); 0.5 nM in assay [3] (setting [11]); greater than 10000 nM in assay [4] (setting [12]). Also, the IC50 was 7 nM in assay [4] (setting [13]), 1.4 nM in assay [5] (setting [14]) and 0.5 nM in assay [5] (setting [15]).

As to `Cn1ccc(-c2cnc(Nc3ccnc(-c4cnn(S(=O)(=O)C5CC5)c4)n3)cc2NCC2CCC(C(F)F)CC2)n1` (stereo not drawn) [Example 152, N^2-(2-(1-(Cyclopropylsulfonyl)-1H-pyrazol-4-yl)pyrimidin-4-yl)-N^4-((4-(difluoromethyl)cyclohexyl)methyl)-5-(1-methyl-1H-pyrazol-3-yl)pyridine-2,4-diamine], the IC50 was 16.1 nM in assay [1] (setting [7]); 8.5 nM in assay [2] (setting [9]); 118 nM in assay [3] (setting [11]); 85.1 nM in assay [4] (setting [13]); 3.5 nM in assay [5] (setting [15]).

On to `Cn1nc(-c2cnc(Nc3ccnc(-c4cnn(S(=O)(=O)C5CC5)c4)n3)cc2N[C@H]2CC[C@@H](F)CC2)cc1C(F)(F)F` [Example 175, N^2-(2-(1-(Cyclopropylsulfonyl)-1H-pyrazol-4-yl)pyrimidin-4-yl)-N^4-((1s,4s)-4-fluorocyclohexyl)-5-(1-methyl-5-(trifluoromethyl)-1H-pyrazol-3-yl)pyridine-2,4-diamine], for which the IC50 turned out to be 8 nM in assay [1] (setting [7]); 25.3 nM in assay [2] (setting [9]); 41.8 nM in assay [3] (setting [11]); 91.9 nM in assay [4] (setting [13]); 14.5 nM in assay [5] (setting [15]).

For the compound `O=C1CC[C@]2(CC[C@H](Nc3cc(Nc4ccnc(-c5cnn(S(=O)(=O)C6CC6)c5)n4)ncc3-c3csc(C(F)(F)F)n3)CC2)N1` [Example 52, (5s,8s)-8-((2-((2-(1-(Cyclopropylsulfonyl)-1H-pyrazol-4-yl)pyrimidin-4-yl)amino)-5-(2-(trifluoromethyl)thiazol-4-yl)pyridin-4-yl)amino)-1-azaspiro[4.5]decan-2-one], the IC50 in assay [1] (setting [6]) came out at 10 nM; in assay [1] (setting [7]) it was 1.6 nM; in assay [2] (setting [8]), 0.6 nM; in assay [2] (setting [9]) it was 0.6 nM; in assay [3] (setting [10]), 0.8 nM; in assay [3] (setting [11]), 1.3 nM. Further, the IC50 was greater than 10000 nM in assay [4] (setting [12]), 18 nM in assay [4] (setting [13]), 0.6 nM in assay [5] (setting [14]) and 0.4 nM in assay [5] (setting [15]).

For the compound `O=S(=O)(C1CC1)n1cc(-c2nccc(Nc3cc(N[C@H]4CC[C@H](CCO)CC4)c(-c4ccn(CC(F)(F)F)n4)cn3)n2)cn1` [Example 270, 2-((1r,4r)-4-((2-((2-(1-(Cyclopropylsulfonyl)-1H-pyrazol-4-yl)pyrimidin-4-yl)amino)-5-(1-(2,2,2-trifluoroethyl)-1H-pyrazol-3-yl)pyridin-4-yl)amino)cyclohexyl)ethan-1-ol], the IC50 in assay [1] (setting [6]) stood at 35.4 nM; in assay [1] (setting [7]), 11.2 nM; in assay [2] (setting [8]), 2.1 nM; in assay [2] (setting [9]), 7.2 nM; in assay [3] (setting [10]), 2700 nM; in assay [3] (setting [11]), 23.6 nM. Moreover, the IC50 in assay [4] (setting [12]) was greater than 10000 nM; in assay [4] (setting [13]) it was 620 nM; in assay [5] (setting [14]), 1.2 nM; in assay [5] (setting [15]) it was 0.7 nM.

Regarding `C[C@]1(O)CC[C@@H](Nc2cc(Nc3ccnc(-c4cnn(CC(F)F)c4)n3)ncc2-c2ccn(C(F)(F)F)n2)CC1` [Example 340, (1s,4s)-4-((2-((2-(1-(2,2-Difluoroethyl)-1H-pyrazol-4-yl)pyrimidin-4-yl)amino)-5-(1-(trifluoromethyl)-1H-pyrazol-3-yl)pyridin-4-yl)amino)-1-methylcyclohexan-1-ol], the IC50 in assay [1] (Km ATP, read-out: IC50 L858R/C797S, Km ATP) was 6.7 nM; in assay [2] (Km ATP, read-out: IC50 del19/T790M/C797S, Km ATP) it was 0.5 nM; in assay [3] (Km ATP, read-out: IC50 del19/C797S, Km ATP) it was 21.4 nM; in assay [4] (Km ATP, read-out: IC50 WT, Km ATP), 173 nM; in assay [5] (Km ATP, read-out: IC50 L858R/T790M/C797S, Km ATP), 0.3 nM.

With `O=S(=O)(C1CC1)n1cc(-c2nccc(Nc3cc(N[C@H]4CC[C@@H](CO)CC4)c(-c4ccn(C5COC5)n4)cn3)n2)cn1` [Example 282, ((1s,4s)-4-((2-((2-(1-(Cyclopropylsulfonyl)-1H-pyrazol-4-yl)pyrimidin-4-yl)amino)-5-(1-(oxetan-3-yl)-1H-pyrazol-3-yl)pyridin-4-yl)amino)cyclohexyl)methanol], the IC50 in assay [1] (setting [6]) was found to be 0.7 nM; in assay [1] (setting [7]), 0.1 nM; in assay [2] (setting [8]), 0.3 nM; in assay [2] (setting [9]) it was 0.3 nM; in assay [3] (setting [10]), 0.5 nM; in assay [3] (setting [11]) it was 0.1 nM. For the same compound, the IC50 in assay [4] (setting [12]) is 370 nM; in assay [4] (setting [13]), 0.6 nM; in assay [5] (setting [14]), 0.3 nM; in assay [5] (setting [15]), 0.1 nM.

For `COCC#Cc1nccc(Nc2cc(NC3CCC(C)(O)CC3)c(-c3ccn(C(F)F)n3)cn2)n1` (stereo not drawn) [Example 104, (1s,4s)-4-((5-(1-(Difluoromethyl)-1H-pyrazol-3-yl)-2-((2-(3-methoxyprop-1-yn-1-yl)pyrimidin-4-yl)amino)pyridin-4-yl)amino)-1-methylcyclohexan-1-ol], the IC50 in assay [1] (setting [7]) was found to be 15.6 nM; in assay [2] (setting [9]), 4.3 nM; in assay [3] (setting [11]) it was 949 nM; in assay [4] (setting [13]) it was 984 nM; in assay [5] (setting [15]), 5.9 nM.

Consider `Cc1nn(S(=O)(=O)N(C)C)cc1-c1nccc(Nc2cc(N[C@H]3CC[C@@](C)(O)CC3)c(-c3ccn(C(F)F)n3)cn2)n1` [Example 315, 4-(4-((5-(1-(Difluoromethyl)-1H-pyrazol-3-yl)-4-(((1s,4s)-4-hydroxy-4-methylcyclohexyl)amino)pyridin-2-yl)amino)pyrimidin-2-yl)-N,N,3-trimethyl-1H-pyrazole-1-sulfonamide], for which the IC50 in assay [1] (setting [6]) amounted to 37.4 nM; in assay [1] (setting [7]), 5.4 nM; in assay [2] (setting [8]), 1.9 nM; in assay [2] (setting [9]) it was 0.6 nM; in assay [3] (setting [10]), 11 nM; in assay [3] (setting [11]), 6.3 nM. In addition, the IC50 in assay [4] (setting [12]) was greater than 10000 nM; in assay [4] (setting [13]) it was 14.2 nM; in assay [5] (setting [14]), 1.1 nM; in assay [5] (setting [15]) it was 0.5 nM.

Consider `COc1ncc(-c2nccc(Nc3cc(N[C@H]4CC[C@@](C)(O)CC4)c(-c4ccn(C(F)F)n4)cn3)n2)cn1` [Example 312, (1s,4s)-4-((5-(1-(Difluoromethyl)-1H-pyrazol-3-yl)-2-((2′-methoxy-[2,5′-bipyrimidin]-4-yl)amino)pyridin-4-yl)amino)-1-methylcyclohexan-1-ol], for which the IC50 was greater than 10000 nM in assay [1] (setting [6]); 2.4 nM in assay [2] (setting [8]); 1.3 nM in assay [2] (setting [9]); 353 nM in assay [3] (setting [10]); greater than 10000 nM in assay [4] (setting [12]); 6.6 nM in assay [5] (setting [14]). Moreover, the IC50 in assay [5] (setting [15]) worked out at 1.3 nM.

On to `CN(CC(F)F)C[C@H]1CC[C@@H](Nc2cc(Nc3ccnc(-c4cnn(S(=O)(=O)C5CC5)c4)n3)ncc2-c2ccn(C)n2)CC1` [Example 237, N^2-(2-(1-(Cyclopropylsulfonyl)-1H-pyrazol-4-yl)pyrimidin-4-yl)-N^4-((1s,4s)-4-(((2,2-difluoroethyl)(methyl)amino)methyl)cyclohexyl)-5-(1-methyl-1H-pyrazol-3-yl)pyridine-2,4-diamine], for which the IC50 in assay [1] (setting [6]) was 61.4 nM; in assay [1] (setting [7]), 6.5 nM; in assay [2] (setting [8]) it was 7.4 nM; in assay [2] (setting [9]), 12.1 nM; in assay [3] (setting [10]), 6.7 nM; in assay [3] (setting [11]), 17.5 nM. Besides, the IC50 in assay [4] (setting [12]) was found to be 2800 nM; in assay [4] (setting [13]), 15.5 nM; in assay [5] (setting [14]), 5.4 nM; in assay [5] (setting [15]), 3 nM.
